One may read the melting point as the temperature of the solid-liquid transition. The compound `O=C(O)Cn1cc(Br)c(=O)[nH]c1=O` returned a melting point of 266 to 268 °C.

Compound `Oc1ccc2[nH]ncc2c1` returned a melting point of 184 to 186 °C.

Turning to `CC(C)(C)Sc1ccc(C(N)=S)cc1`, the melting point fell in the range of 163 to 165 °C.

Take `CN(C)c1ccc(C2=CCNC2)cc1`: the melting point was 99 to 101 °C.

In turn, `CC(C)c1ccccc1Nc1nc2ccccc2s1` displayed a melting point of 115 to 116 °C.

Consider `O=C(O)c1ccc(-c2ccccc2)cc1F`, for which the melting point lay within 187 to 189 °C.

`CC(=O)NC(C)(C)C(N)=NO` yielded a melting point of 163 to 165 °C.

Take `O=C(Cc1ccc(Br)cc1)Nc1ccsc1C(=O)O`: the melting point is 226 to 228 °C.

Consider `CC(=O)Oc1ccc2ccc(O)cc2c1`, for which the melting point lay within 157 to 159 °C.

Consider `COC(=O)c1ccc(CS(N)(=O)=O)cc1`, for which the melting point fell in the range of 138 to 140 °C.

In turn, `Nc1cc(C(F)(F)F)cc2c1OCC(=O)N2` displayed a melting point of 199 to 201 °C.

Take `COc1cc(N)c(C(=O)O)cc1OC(F)F`: the melting point was in the range of 168 to 170 °C.

For `CC(C)(C)OC(=O)NC(Cc1ccccc1)C(O)C(F)(F)F` (stereo not given), the melting point is 149 to 151 °C.

Turning to `NS(=O)(=O)CCN1C(=O)c2ccccc2C1=O`, the melting point was in the range of 209 to 211 °C.

`O=C(O)CCC1NC(=O)NC1=O` (stereo not given) registered a melting point of 169 to 171 °C.

As for `O=C(NC(C(=O)O)c1ccccc1)OCc1ccccc1` (stereo not given), the melting point is 130 to 132 °C.

Regarding `CSc1ccc(OCCCl)cc1`, the melting point is 63 to 65 °C.

On to `N#CCc1cc(Br)c2c(c1)C=CCO2`, for which the melting point was 79 to 81 °C.

`O=C(O)c1cc(Cl)ccc1I` displayed a melting point of 162 to 164 °C.

Take `O=C(O)Cc1csc(-c2ccccn2)n1`: the melting point lay in the range of 140 to 147 °C.

In turn, `CC(C)N(C)S(=O)(=O)c1ccc(Cl)c(C(=O)O)c1` gave a melting point of 154 to 156 °C.

As to `O=C(O)c1sccc1S(=O)(=O)C(F)F`, the melting point was 121 to 123 °C.

Regarding `O=C(CBr)c1ccc(Cl)s1`, the melting point fell in the range of 113 to 115 °C.

As to `CCSc1ccc([N+](=O)[O-])cc1C(=O)O`, the melting point was in the range of 189 to 191 °C.

As for `NC1CCS(=O)(=O)c2ccc(Cl)cc21` (stereo not given), the melting point was 57 to 59 °C.

For the compound `CC1CCN(CC(O)CN)CC1` (stereo not given), the melting point is 63 to 65 °C.

As to `COCCOc1ccc(C(=O)O)cc1OC`, the melting point lay in the range of 149 to 151 °C.

On to `Nc1cc(F)c(Oc2ccc(F)cc2)cc1C(=O)O`, for which the melting point is 194 to 196 °C.

Compound `O=S(=O)(Cl)c1ccc(S(=O)(=O)N2CCCCC2)cc1` returned a melting point of 151 to 153 °C.

`O=C(O)c1csc(-c2nnc[nH]2)n1` yielded a melting point of 299 to 301 °C.

`O=C(O)c1ccc(NS(=O)(=O)c2ccc(F)c(Cl)c2)cc1` had a melting point of 240 to 242 °C.

For the compound `O=CN1CCN(C(=NS(=O)(=O)c2ccccc2)C(F)(F)F)CC1`, the melting point is 114 to 116 °C.

Compound `COC(=O)c1cc(C)cc([N+](=O)[O-])c1` showed a melting point of 80 to 82 °C.

On to `CCCCC(NC(=O)C(C)NC(C)=O)C(=O)O` (stereo not given), for which the melting point was 143 to 145 °C.

`O=C(O)CNC(=O)c1ccccc1Cl` showed a melting point of 182 to 184 °C.

`CC(=O)c1ccc(C)c(S(N)(=O)=O)c1` displayed a melting point of 144 to 146 °C.

In turn, `Cn1c(CCC(=O)O)nc(=O)c2ccccc21` had a melting point of 200 to 202 °C.

The compound `CC1CCCCN1S(=O)(=O)c1cccc(C(=O)O)c1` (stereo not given) showed a melting point of 149 to 151 °C.

For the compound `ClCc1nnc(-c2ccccc2Cl)o1`, the melting point was in the range of 91 to 93 °C.

In turn, `O=C(CN1CCNCC1)N1CCCc2ccccc21` registered a melting point of 64 to 66 °C.

Compound `CC(C)(C)OC(=O)NC(CC(=O)O)C1CC1` (stereo not given) showed a melting point of 111 to 113 °C.

`O=C(NCc1ccccn1)OCC(F)(F)F` returned a melting point of 50 to 52 °C.

`O=C(O)c1c[nH]cc1-c1cc(Cl)c2c(c1)OCCO2` came in with a melting point of 209 to 211 °C.

As for `Nc1cccc(Cn2nc3ccccn3c2=O)c1`, the melting point fell in the range of 127 to 129 °C.

`O=C(CCl)N(C1CCCCC1)C1CCS(=O)(=O)C1` (stereo not given): the melting point lay within 162 to 164 °C.

In turn, `CC(Cl)C(=O)Nc1cccc(S(=O)(=O)N(C)C)c1` (stereo not given) returned a melting point of 163 to 167 °C.

For `Cc1ncc(C=O)n1-c1ccc(Br)cc1`, the melting point is 110 to 112 °C.

The compound `O=C(O)CSc1ccc(Br)cc1` showed a melting point of 117 to 119 °C.

As to `NC(=O)NCC1CCCCC1`, the melting point lay within 168 to 170 °C.

In turn, `CC(N)(CO)C1CCCCC1` (stereo not given) registered a melting point of 80 to 82 °C.

In turn, `CN1C(=O)CC(C(=O)O)C1c1ccccc1` (stereo not given) gave a melting point of 126 to 128 °C.

For the compound `Cc1cc(Cl)ccc1S(=O)(=O)Cl`, the melting point was 54 to 56 °C.

For `O=S1(=O)CCNc2ccccc21`, the melting point is 139 to 141 °C.

`N#Cc1nc(N)[nH]c1C#N` displayed a melting point of 270 to 272 °C.

In the case of `O=C(O)CCNC(=O)c1ccc2[nH]ncc2c1`, the melting point lay in the range of 240 to 242 °C.

Compound `Cc1nn(-c2ccccc2)cc1C=O` yielded a melting point of 58 to 60 °C.

In turn, `Nc1c([N+](=O)[O-])c(=O)oc2ccccc12` came in with a melting point of 259 to 261 °C.

Consider `CC(C)N(O)C(=O)C(=O)O`, for which the melting point was 99 to 101 °C.

The compound `Nc1ccc2nc3n(c(=O)c2c1)CCC3` yielded a melting point of 221 to 223 °C.

`Cc1nc2n(n1)CC(N)CC2` (stereo not given) yielded a melting point of 60 to 62 °C.

`Cc1c(C(=O)O)nnn1-c1ccc(F)cc1` came in with a melting point of 181 to 183 °C.

`Nc1ccc(Br)cc1S(=O)(=O)N1CCOCC1` registered a melting point of 142 to 144 °C.

`CC(C)CC(=O)NNC(=O)C(C)Cl` (stereo not given) came in with a melting point of 174 to 176 °C.

`O=C(O)c1cc(Br)c2c(c1)OCCO2`: the melting point fell in the range of 258 to 260 °C.

Compound `O=C(O)CCNS(=O)(=O)c1ccccc1Cl` yielded a melting point of 128 to 130 °C.

The compound `O=C1COc2cc(C(=O)O)ccc2N1` gave a melting point of 321 to 323 °C.

Take `O=C(O)C=Cc1cccc2cccnc12`: the melting point fell in the range of 188 to 190 °C.

As for `O=S1(=O)Nc2ncnn2-c2ccccc21`, the melting point lay within 284 to 286 °C.

`O=C(O)C(Cc1ccccc1)N1C(=O)C=CC1=O` (stereo not given): the melting point fell in the range of 193 to 195 °C.

`NNC(=O)Cc1csc(N2CCOCC2)n1` had a melting point of 168 to 170 °C.

In turn, `Cc1cc(NC(=O)C2CC2)sc1C(=O)O` registered a melting point of 184 to 186 °C.

The compound `Cc1n[nH]c(-c2ccc(N)cc2)n1` yielded a melting point of 179 to 181 °C.

`OCc1c(Cl)nc2ccccn12` yielded a melting point of 177 to 179 °C.

The compound `O=C1Nc2cc(F)c([N+](=O)[O-])cc2C1=O` came in with a melting point of 236 to 238 °C.

The compound `Nc1cc(C2CCCO2)no1` (stereo not given) had a melting point of 68 to 70 °C.

Take `CC(C)(C)OC(=O)Nc1cccc(C(N)=NO)c1`: the melting point fell in the range of 168 to 170 °C.

As for `O=C(O)c1c2c(nc3ccccc13)C(=Cc1ccc(Cl)c(Cl)c1)CC2`, the melting point fell in the range of 184 to 186 °C.

With `Cc1nn(-c2ccccc2)c(Cl)c1C(=O)O`, the melting point was in the range of 232 to 234 °C.

`CCOC(=O)/C(C#N)=C/Nc1cc(OC)cc(OC)c1` yielded a melting point of 140 to 142 °C.

The compound `Cc1cc(C(=O)CCl)c(C)n1-c1ccc2c(c1)OCO2` had a melting point of 98 to 110 °C.

The compound `NS(=O)(=O)N1CCOc2ccccc21` registered a melting point of 135 to 137 °C.

The compound `O=C(CCl)N1CCN(c2ncccn2)CC1` gave a melting point of 100 to 102 °C.

`CC1CCN(S(=O)(=O)N2CCNCC2)CC1` gave a melting point of 61 to 63 °C.

In turn, `CC(C)(C)c1nnc(S)n1N` returned a melting point of 185 to 189 °C.

`CC(=O)c1c(C)[nH]c2ccccc12`: the melting point was in the range of 195 to 197 °C.

The compound `CC(C)S(=O)(=O)Nc1ccc(S(N)(=O)=O)cc1F` yielded a melting point of 134 to 136 °C.

In turn, `CCCC1CCC(=O)NC1=O` (stereo not given) showed a melting point of 76 to 78 °C.

The compound `Nc1cc(F)c(-n2ccnc2)c(F)c1` came in with a melting point of 159 to 161 °C.

In turn, `Cc1oncc1C(=O)Nc1ccc(C(=O)O)cc1` yielded a melting point of 229 to 231 °C.

For the compound `O=C(O)Cc1ccc(NC(=O)c2ccc(Br)cc2)cc1`, the melting point was in the range of 269 to 271 °C.

With `Nc1cc(C(=O)O)ccc1OC(F)F`, the melting point was 155 to 157 °C.

Compound `CCS(=O)(=O)c1ccc(CN)cc1` had a melting point of 51 to 53 °C.

In turn, `Cc1c(C=O)c(=O)n(-c2ccccc2)n1C` had a melting point of 162 to 165 °C.

`O=C(NCc1ccc2c(c1)OCO2)n1ccnc1` yielded a melting point of 108 to 110 °C.

Take `NC(=O)CCN(C(=O)CCl)c1ccccc1`: the melting point was in the range of 143 to 145 °C.

Compound `COCCN1C(=O)CC(=O)NC1=S` displayed a melting point of 148 to 150 °C.

Compound `COc1ccccc1NC(=O)NC1CCNCC1` registered a melting point of 83 to 85 °C.

As to `COc1cccc(NC(=O)CNc2ccccc2)c1`, the melting point was in the range of 205 to 207 °C.

Consider `O=C(O)c1c(F)ccc(OC(F)F)c1F`, for which the melting point lay within 90 to 92 °C.

In the case of `Cc1ccc(-c2nnc(Cl)c3ccccc23)cc1`, the melting point fell in the range of 145 to 147 °C.

As for `CC12CSCC(=O)N1C(C(=O)O)CS2` (stereo not given), the melting point is 202 to 204 °C.

In turn, `N#Cc1ccc(C(O)C(=O)O)cc1` (stereo not given) registered a melting point of 89 to 91 °C.

`N#Cc1cn(-c2ccc(N)cc2)nc1N` showed a melting point of 195 to 197 °C.

As for `CC(=O)c1cc(C(=O)O)ccc1O`, the melting point fell in the range of 239 to 241 °C.

`Cc1ccc(Oc2ccc(NC(=O)CCl)cc2)cc1` returned a melting point of 155 to 158 °C.

For the compound `Cn1cc(C(N)C(=O)O)cn1` (stereo not given), the melting point was in the range of 245 to 247 °C.

The compound `Nc1nc(CCl)nc2oc(-c3ccccc3)c(-c3ccccc3)c12` displayed a melting point of 201 to 203 °C.

The compound `Cc1cc(C)c(C(=O)O)o1` yielded a melting point of 145 to 147 °C.

On to `OCCC1CSCCN1` (stereo not given), for which the melting point lay in the range of 86 to 88 °C.

`O=S(=O)(Cl)c1cc(Br)c(F)cc1F` gave a melting point of 34 to 36 °C.

In the case of `Cc1cc(C)c(C)c(Oc2c(C#N)c(C)nn2C)c1`, the melting point fell in the range of 69 to 71 °C.

`CN(CC(=O)Nc1ccc(F)cc1)C(=O)CCl`: the melting point was in the range of 159 to 161 °C.

The compound `O=C(O)c1c(F)cc(OC(F)F)cc1F` had a melting point of 106 to 108 °C.

In the case of `CC1(O)C(=O)Nc2ccccc21` (stereo not given), the melting point was in the range of 156 to 158 °C.

Turning to `O=Cc1cccc(OCc2cccc(C(=O)O)c2)c1`, the melting point lay within 122 to 124 °C.

In turn, `ClCc1cn2cccnc2n1` gave a melting point of 125 to 127 °C.

On to `CC1C(=O)NCCN1C(=O)c1ccco1` (stereo not given), for which the melting point is 149 to 151 °C.

As to `Cc1oncc1C(=O)Nc1ccc(C(=O)O)c(O)c1`, the melting point was 214 to 216 °C.

Compound `COC(=O)c1sc(-c2ccccc2)cc1O` yielded a melting point of 94 to 96 °C.

Compound `Cc1cc(F)c2nc(O)cc(C(=O)O)c2c1` had a melting point of 337 to 339 °C.

Values taken from a melting point compilation (Tetko et al.).
